Experiments:
Experiment in all cases: relative viability (nuclei count vs DMSO), 5 days (fraction); higher = more cells survive
Ibrutinib + Palbociclib = compound: C=CC(=O)N1CCC[C@@H](n2nc(-c3ccc(Oc4ccccc4)cc3)c3c(N)ncnc32)C1 [Ibrutinib] + CC(=O)c1c(C)c2cnc(Nc3ccc(N4CCNCC4)cn3)nc2n(C2CCCC2)c1=O [Palbociclib] (partner 0.5 µM)
How it was run: (§1)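 One day after seeding in 1536-well plates, lung cancer cell lines were dosed by pin tool. Dosing was either single-drug or a fixed anchor-drug dose plus five library-drug doses (not always all listed) in √10 steps. After 5 days, nuclei were stained in one fix-and-stain step and counted on 4× images, and relative viability is the nuclei count of treated wells over that of vehicle wells, given as the median of duplicate plates.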

BMX-IN-1 + Olaparib = compound: C=CC(=O)Nc1cc(-n2c(=O)ccc3cnc4ccc(-c5ccc(NS(C)(=O)=O)cc5)cc4c32)ccc1C [BMX-IN-1] + O=C(c1cc(Cc2n[nH]c(=O)c3ccccc23)ccc1F)N1CCN(C(=O)C2CC2)CC1 [Olaparib] (partner 8 µM)
How it was run: as §1

PAC-1 + Luminespib = compound: C=CCc1cccc(/C=N/NC(=O)CN2CCN(Cc3ccccc3)CC2)c1O [PAC-1] + CCNC(=O)c1noc(-c2cc(C(C)C)c(O)cc2O)c1-c1ccc(CN2CCOCC2)cc1 [Luminespib] (partner 0.01 µM)
How it was run: as §1

BMX-IN-1 + OSI-027 = compound: C=CC(=O)Nc1cc(-n2c(=O)ccc3cnc4ccc(-c5ccc(NS(C)(=O)=O)cc5)cc4c32)ccc1C [BMX-IN-1] + COc1cccc2cc(-c3nc([C@H]4CC[C@H](C(=O)O)CC4)n4ncnc(N)c34)[nH]c12 [OSI-027] (partner 0.5 µM)
How it was run: as §1

## SK-MES-1
Ibrutinib + Palbociclib; first compound 0.005 µM
  relative viability: 0.337
Ibrutinib + Palbociclib; first compound 0.01581 µM
  relative viability: 0.324
Ibrutinib + Palbociclib; first compound 0.05 µM
  relative viability: 0.382
Ibrutinib + Palbociclib; first compound 0.1581 µM
  relative viability: 0.366
Ibrutinib + Palbociclib; first compound 0.5 µM
  relative viability: 0.245
BMX-IN-1 + Olaparib; first compound 0.02 µM
  relative viability: 0.754
BMX-IN-1 + Olaparib; first compound 0.2 µM
  relative viability: 0.811
BMX-IN-1 + Olaparib; first compound 0.6325 µM
  relative viability: 0.961
BMX-IN-1 + Olaparib; first compound 2 µM
  relative viability: 0.625
PAC-1 + Luminespib; first compound 0.02 µM
  relative viability: 0.723
PAC-1 + Luminespib; first compound 0.06325 µM
  relative viability: 0.805
PAC-1 + Luminespib; first compound 0.2 µM
  relative viability: 0.726
PAC-1 + Luminespib; first compound 2 µM
  relative viability: 0.56
BMX-IN-1 + OSI-027; first compound 0.02 µM
  relative viability: 0.783
BMX-IN-1 + OSI-027; first compound 0.2 µM
  relative viability: 0.645
BMX-IN-1 + OSI-027; first compound 0.6325 µM
  relative viability: 0.757
BMX-IN-1 + OSI-027; first compound 2 µM
  relative viability: 0.239
